# Data as given in the supplement of paper PMC10307832.
# Columns and labels:
# Assay in all cases: relative viability (nuclei count vs DMSO), 5 days (fraction); higher = more cells survive
# [1] = compound: CN(C/C=C/C1=CC=C(C=C1)Cl)CC2=CC=CC=C2N(CCO)S(=O)(=O)C3=CC=C(C=C3)OC [KN-93] + Nc1ncn([C@H]2C[C@H](O)[C@@H](CO)O2)c(=O)n1 [Decitabine] (partner 2 µM)
# Method in brief: (§1)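 Relative viability divides the nuclei count in treated wells by that in vehicle wells. Lung cancer cell lines were seeded in 1536-well plates, dosed by pin tool the next day, and fixed and stained after 5 days in one step with final 0.05% Triton X-100, 1% formaldehyde and 1 ug/ml Hoechst. Dosing was a single drug or a fixed anchor-drug dose plus five library-drug doses (not always all listed) in √10 steps, and values are medians of duplicate plates imaged at 4×.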
# [2] = compound: CN(C/C=C/C1=CC=C(C=C1)Cl)CC2=CC=CC=C2N(CCO)S(=O)(=O)C3=CC=C(C=C3)OC [KN-93] + NC(=O)Nc1cc(-c2cccc(F)c2)sc1C(=O)N[C@H]1CCCNC1 [AZD7762] (partner 0.2 µM)
# Method in brief: as §1
# [3] = compound: CN(C/C=C/C1=CC=C(C=C1)Cl)CC2=CC=CC=C2N(CCO)S(=O)(=O)C3=CC=C(C=C3)OC [KN-93] + N=C(N)NC(=N)NCCc1ccccc1 [Phenformin] (partner 250 µM)
# Method in brief: as §1
# [4] = compound: CN(C/C=C/C1=CC=C(C=C1)Cl)CC2=CC=CC=C2N(CCO)S(=O)(=O)C3=CC=C(C=C3)OC [KN-93] + C[C@]1(O)C[C@@H](c2nc(-c3ccc4ccc(-c5ccccc5)nc4c3)c3c(N)nccn32)C1 [Linsitinib] (partner 1 µM)
# Method in brief: as §1
# [5] = compound: CN(C/C=C/C1=CC=C(C=C1)Cl)CC2=CC=CC=C2N(CCO)S(=O)(=O)C3=CC=C(C=C3)OC [KN-93] + CC(C)C[C@H](NC(=O)[C@H](Cc1ccccc1)NC(=O)c1cnccn1)B(O)O [Bortezomib] (partner 0.002 µM)
# Method in brief: as §1
Cell Line,relative viability ([1]; first compound 0.08 µM),relative viability ([1]; first compound 0.253 µM),relative viability ([1]; first compound 2.53 µM),relative viability ([1]; first compound 8 µM),relative viability ([2]; first compound 0.08 µM),relative viability ([2]; first compound 0.253 µM),relative viability ([2]; first compound 2.53 µM),relative viability ([2]; first compound 8 µM),relative viability ([3]; first compound 0.08 µM),relative viability ([3]; first compound 0.253 µM),relative viability ([3]; first compound 2.53 µM),relative viability ([3]; first compound 8 µM),relative viability ([4]; first compound 0.08 µM),relative viability ([4]; first compound 0.253 µM),relative viability ([4]; first compound 2.53 µM),relative viability ([4]; first compound 8 µM),relative viability ([5]; first compound 0.253 µM),relative viability ([5]; first compound 2.53 µM),relative viability ([5]; first compound 8 µM),relative viability ([5]; first compound 0.08 µM)
LK-2,0.276,0.293,0.315,0.278,0.419,0.366,0.428,0.3,0.505,0.398,0.341,0.233,0.605,0.609,0.634,0.479,,,,
NCI-H358,0.212,0.207,0.198,0.184,0.474,0.473,0.465,0.424,0.32,0.444,0.384,0.251,0.631,0.81,0.634,0.353,,,,
NCI-H520,0.596,0.599,0.538,0.458,,,,,0.732,0.769,0.842,0.451,,1.21,1.12,0.682,0.883,0.914,0.511,
NCI-H522,0.699,0.625,0.7,0.707,0.831,0.811,0.876,0.77,0.666,0.704,0.741,0.636,,,,,,,,
NCI-H661,0.539,0.527,0.543,0.378,,,,,0.307,0.273,0.26,0.294,0.502,0.531,0.433,0.562,0.901,0.713,0.665,0.735
NCI-H1395,0.713,0.739,0.745,0.615,0.421,0.403,0.391,0.345,0.477,0.449,0.48,0.449,1.66,1.13,1.07,0.427,,,,
NCI-H1563,,,,,,,,,0.706,0.633,0.647,0.626,1.22,1.2,1.02,0.934,0.884,0.778,0.675,1
NCI-H1650,0.349,0.38,0.427,0.44,,,,,0.468,0.417,0.571,0.25,,,,,0.196,0.208,0.203,0.218
NCI-H1793,0.595,0.494,0.465,0.43,0.358,0.458,0.454,0.159,0.372,0.36,0.367,0.2,,1.18,0.925,0.673,,,,
NCI-H1944,0.45,0.414,0.413,0.395,0.527,0.433,0.585,0.579,0.172,0.216,0.218,0.195,1.29,1.21,1.11,1.02,,,,
NCI-H2009,0.421,0.393,0.399,0.317,,,,,0.426,0.557,0.492,0.317,1.16,1.24,1.17,0.94,0.995,0.84,0.462,1.05
NCI-H2023,0.189,0.239,0.219,0.201,,,,,0.365,0.466,0.496,0.247,0.613,0.669,0.657,0.532,0.955,1.04,0.448,0.971
NCI-H2170,0.468,0.501,0.49,0.436,0.623,0.971,0.845,0.734,0.434,0.419,0.392,0.402,,,,,,,,
NCI-H2228,,,,,,,,,0.229,0.347,0.412,0.325,0.581,0.517,0.63,0.314,1.18,1.14,0.817,1.01
SK-LU-1,0.627,0.702,0.633,0.364,,,,,0.494,0.811,0.475,0.391,1.06,1.12,1.21,0.602,1.02,1.59,0.591,1.58
SK-MES-1,0.389,0.357,0.371,0.355,,,,,0.554,0.751,0.699,0.571,1.06,1.05,1.12,1.02,,,,
SW 900,0.443,0.427,0.452,0.517,0.669,0.628,0.684,0.522,0.547,0.474,0.656,0.554,,,,,,,,
SW 1573,0.494,0.615,0.466,0.212,,,,,0.319,0.389,0.454,0.275,0.906,0.884,0.714,0.349,1.23,0.973,0.763,1.04
UMC-11,0.594,0.612,0.634,0.461,,,,,0.381,0.365,0.355,0.277,,1.19,1.13,0.713,0.919,0.799,0.197,
